In publication PMC9388697 (Biometals : an international journal on the role of metal …, 2022):

Target: Mar2 (Thermoanaerobacterium thermosaccharolyticum, UniProt D9TSN9, K173F/K351T)
Assay: lactate racemase activity, L-lactate determined with Megazyme kit
Format: biochemical
Conditions: 200 mM D-lactate; in vitro synthesized NPN; 35 °C; 30 min

## C[C@@H](O)C(=O)O [D-lactate]
  % of TtLarA activity: a small but substantial lactate racemase (Lar) activity was detected for the purified enzymes
